This note sets out measurements from the supplement of paper PMC11208160.
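Further: IS621 bridge recombinase in Escherichia coli cells against a fixed T5 target plasmid.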

The nature of the series: recombinant UMI read abundance after kanamycin selection (control-corrected) (log10(CPM+1)); higher = more efficient recombination; extreme values may be limits of the assay; sequences stand for … in AGTGCAGAGAAAATCGGCCAGTTTTCTCTGCCTGCAGTCCGCATGCCGTGGGACCCCTTGGGTTCTAACCTGTTGCCTAGATTTATGCAGCGGACTGCCTTTCTCCCAAAGTGATAAACCGG…AGGTTGGTTTCACT; site = the 11-nt donor. Summed up:
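Values are reported as log10(CPM+1), obtained by converting sequencing counts to CPM, averaging replicates and scaling by control-derived factors. The counts came from recombinant UMIs amplified by PCR across the donor–target junction. These UMIs came from a pooled Escherichia coli screen of donor and donor-binding-loop pairs for the IS621 bridge recombinase, plated with IPTG (0.07 mM) plus kanamycin or left unselected, in two replicates each.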
“CCATGCTCATGGACCGGTTTTCCCGGTAATCCGTATTTGAA (site CAATGCTCTTT)”: the “recombinant UMI read abundance (log10)” value was 0.0121.
Under “CCATGCTCATGGACCGGTTTTCCCGGTAATCCGTATTTGAA (site CCATGCTCTTT)” stands 0.703; under “CCATGCTCATGGACCGGTTTTCCCGGTAATCCGTATTTGAA (site CGATGCTCTTT)”, 0.0134; under “CCATGCTCATGGACCGGTTTTCCCGGTAATCCGTATTTGAA (site CTATGCTCTTT)”, 0.015.
For “CCATGTGCATGGACCGGTTTTCCCGGTAATCCGTATTTGAT (site CCAAGTGCTAT)”, the “recombinant UMI read abundance (log10)” value was determined as 0.00273.
Take “CCATGTGCATGGACCGGTTTTCCCGGTAATCCGTATTTGAT (site CCACGTGCTAT)”: the “recombinant UMI read abundance (log10)” value came out at 0.215.
Under “CCATGTGCATGGACCGGTTTTCCCGGTAATCCGTATTTGAT (site CCAGGTGCTAT)” stands 0.00344.
Consider “CCATGTGCATGGACCGGTTTTCCCGGTAATCCGTATTTGAT (site CCATGTGCTAT)”, for which the “recombinant UMI read abundance (log10)” value came out at 1.09.
Take “CCATTAGCATGGACCGGTTTTCCCGGTAATCCGTATTTGTG (site CCATTAGCTCA)”: the “recombinant UMI read abundance (log10)” value is 0.183.
Consider “CCATTAGCATGGACCGGTTTTCCCGGTAATCCGTATTTGTG (site CCCTTAGCTCA)”, for which the “recombinant UMI read abundance (log10)” value came to 0.00634.
In the case of “CCATTAGCATGGACCGGTTTTCCCGGTAATCCGTATTTGTG (site CCGTTAGCTCA)”, the “recombinant UMI read abundance (log10)” value worked out at 0.0308.
Next, “CCATTAGCATGGACCGGTTTTCCCGGTAATCCGTATTTGTG (site CCTTTAGCTCA)”: 0.0119; “CCATTCCCATGGACCGGTTTTCCCGGTAATCCGTATTTGAC (site CCATTCCCTGT)”: 0.
For “CCATTTGCATGGACCGGTTTTCCCGGTAATCCGTATTTGGC (site CCATTTGCTGC)”, the “recombinant UMI read abundance (log10)” value worked out at 0.
Consider “CCCAAAGCATGGACCGGTTTTCCCGGTAATCCGTATTTGAT (site CCAAAAGCTAT)”, for which the “recombinant UMI read abundance (log10)” value is 0.
With “CCCAAAGCATGGACCGGTTTTCCCGGTAATCCGTATTTGAT (site CCCAAAGCTAT)”, the “recombinant UMI read abundance (log10)” value came to 0.774.
On to “CCCAAAGCATGGACCGGTTTTCCCGGTAATCCGTATTTGAT (site CCGAAAGCTAT)”, for which the “recombinant UMI read abundance (log10)” value was 0.
As to “CCCAAAGCATGGACCGGTTTTCCCGGTAATCCGTATTTGAT (site CCTAAAGCTAT)”, the “recombinant UMI read abundance (log10)” value was 0.00406.
Turning to “CCCAATACATGGACCGGTTTTCCCGGTAATCCGTATTTGGC (site CCAAATACTGC)”, the “recombinant UMI read abundance (log10)” value was 0.
With “CCCAATACATGGACCGGTTTTCCCGGTAATCCGTATTTGGC (site CCCAATACTGC)”, the “recombinant UMI read abundance (log10)” value amounted to 0.
With “CCCAATACATGGACCGGTTTTCCCGGTAATCCGTATTTGGC (site CCGAATACTGC)”, the “recombinant UMI read abundance (log10)” value came to 0.
In the case of “CCCAATACATGGACCGGTTTTCCCGGTAATCCGTATTTGGC (site CCTAATACTGC)”, the “recombinant UMI read abundance (log10)” value amounted to 0.
“CCCACATCATGGACCGGTTTTCCCGGTAATCCGTATTTGTC (site CCCAAATCTGA)”: the “recombinant UMI read abundance (log10)” value turned out to be 0.
For the sequence “CCCACATCATGGACCGGTTTTCCCGGTAATCCGTATTTGTC (site CCCACATCTGA)”, the “recombinant UMI read abundance (log10)” value is 0.453.
Turning to “CCCACATCATGGACCGGTTTTCCCGGTAATCCGTATTTGTC (site CCCAGATCTGA)”, the “recombinant UMI read abundance (log10)” value was 0.
For the sequence “CCCACATCATGGACCGGTTTTCCCGGTAATCCGTATTTGTC (site CCCATATCTGA)”, the “recombinant UMI read abundance (log10)” value was determined as 0.
As to “CCCATAGCATGGACCGGTTTTCCCGGTAATCCGTATTTGTC (site CCCATAACTGA)”, the “recombinant UMI read abundance (log10)” value turned out to be 0.433.
Take “CCCATAGCATGGACCGGTTTTCCCGGTAATCCGTATTTGTC (site CCCATACCTGA)”: the “recombinant UMI read abundance (log10)” value came to 0.
“CCCATAGCATGGACCGGTTTTCCCGGTAATCCGTATTTGTC (site CCCATAGCTGA)”: the “recombinant UMI read abundance (log10)” value worked out at 1.56.
Under “CCCATAGCATGGACCGGTTTTCCCGGTAATCCGTATTTGTC (site CCCATATCTGA)” stands 0.
In the case of “CCCATATCATGGACCGGTTTTCCCGGTAATCCGTATTTGTT (site CCCATATCTAA)”, the “recombinant UMI read abundance (log10)” value was found to be 1.01.
As for “CCCATATCATGGACCGGTTTTCCCGGTAATCCGTATTTGTT (site CCCATATCTCA)”, the “recombinant UMI read abundance (log10)” value amounted to 0.0132.
Turning to “CCCATATCATGGACCGGTTTTCCCGGTAATCCGTATTTGTT (site CCCATATCTGA)”, the “recombinant UMI read abundance (log10)” value was found to be 0.
Next, “CCCATATCATGGACCGGTTTTCCCGGTAATCCGTATTTGTT (site CCCATATCTTA)”: 0; “CCCATCTCATGGACCGGTTTTCCCGGTAATCCGTATTTGGG (site CCCATCTCTCC)”: 0; “CCCATCTCATGGACCGGTTTTCCCGGTAATCCGTATTTGGG (site CCCCTCTCTCC)”: 0.078.
Under “CCCATCTCATGGACCGGTTTTCCCGGTAATCCGTATTTGGG (site CCCGTCTCTCC)” stands 0.00519; under “CCCATCTCATGGACCGGTTTTCCCGGTAATCCGTATTTGGG (site CCCTTCTCTCC)”, 0.0111; under “CCCCACACATGGACCGGTTTTCCCGGTAATCCGTATTTGGA (site CCCCACACTTA)”, 0.369.
Take “CCCCACACATGGACCGGTTTTCCCGGTAATCCGTATTTGGA (site CCCCACACTTC)”: the “recombinant UMI read abundance (log10)” value was 0.275.
With “CCCCACACATGGACCGGTTTTCCCGGTAATCCGTATTTGGA (site CCCCACACTTG)”, the “recombinant UMI read abundance (log10)” value stood at 0.
Under “CCCCACACATGGACCGGTTTTCCCGGTAATCCGTATTTGGA (site CCCCACACTTT)” stands 0; under “CCCCACACATGGACCGGTTTTCCCGGTAATCCGTATTTGTG (site CCCCACACTAA)”, 0.0034; under “CCCCACACATGGACCGGTTTTCCCGGTAATCCGTATTTGTG (site CCCCACACTCA)”, 0.00514.
With “CCCCACACATGGACCGGTTTTCCCGGTAATCCGTATTTGTG (site CCCCACACTGA)”, the “recombinant UMI read abundance (log10)” value worked out at 0.
On to “CCCCACACATGGACCGGTTTTCCCGGTAATCCGTATTTGTG (site CCCCACACTTA)”, for which the “recombinant UMI read abundance (log10)” value is 0.0257.
Under “CCCCACTCATGGACCGGTTTTCCCGGTAATCCGTATTTGTA (site CCCCACACTTA)” stands 0; under “CCCCACTCATGGACCGGTTTTCCCGGTAATCCGTATTTGTA (site CCCCACCCTTA)”, 0.00571; under “CCCCACTCATGGACCGGTTTTCCCGGTAATCCGTATTTGTA (site CCCCACGCTTA)”, 0.00566.
Turning to “CCCCACTCATGGACCGGTTTTCCCGGTAATCCGTATTTGTA (site CCCCACTCTTA)”, the “recombinant UMI read abundance (log10)” value stood at 2.01.
Under “CCCCATTCATGGACCGGTTTTCCCGGTAATCCGTATTTGGA (site CCCCATTCTTC)” stands 0.274.
Next, “CCCCCTACATGGACCGGTTTTCCCGGTAATCCGTATTTGAG (site CACCCTACTCT)”: 0.0202.
On to “CCCCCTACATGGACCGGTTTTCCCGGTAATCCGTATTTGAG (site CCCCCTACTCT)”, for which the “recombinant UMI read abundance (log10)” value amounted to 0.0375.
With “CCCCCTACATGGACCGGTTTTCCCGGTAATCCGTATTTGAG (site CGCCCTACTCT)”, the “recombinant UMI read abundance (log10)” value worked out at 0.0197.
Consider “CCCCCTACATGGACCGGTTTTCCCGGTAATCCGTATTTGAG (site CTCCCTACTCT)”, for which the “recombinant UMI read abundance (log10)” value amounted to 0.011.
For “CCCCGGGCATGGACCGGTTTTCCCGGTAATCCGTATTTGGG (site CCCCGGGCTCC)”, the “recombinant UMI read abundance (log10)” value was determined as 0.182.
Under “CCCGAAGCATGGACCGGTTTTCCCGGTAATCCGTATTTGTT (site CCCGAAGCTAA)” stands 1.18; under “CCCGAGACATGGACCGGTTTTCCCGGTAATCCGTATTTGGT (site CCCGAGACTAC)”, 0.543.
As for “CCCGATCCATGGACCGGTTTTCCCGGTAATCCGTATTTGTG (site CCCGATCCTCA)”, the “recombinant UMI read abundance (log10)” value was 1.73.
Next, “CCCGCACCATGGACCGGTTTTCCCGGTAATCCGTATTTGCA (site CCCGCACCTTG)”: 0.
As for “CCCGCCACATGGACCGGTTTTCCCGGTAATCCGTATTTGCC (site CCCGCCACTGG)”, the “recombinant UMI read abundance (log10)” value was determined as 2.07.
Next, “CCCGCGGCATGGACCGGTTTTCCCGGTAATCCGTATTTGGG (site CCCGCGGCTCC)”: 0.0266; “CCCGGTCCATGGACCGGTTTTCCCGGTAATCCGTATTTGCA (site ACCGGTCCTTG)”: 0; “CCCGGTCCATGGACCGGTTTTCCCGGTAATCCGTATTTGCA (site CACGGTCCTTG)”: 0.
Next, “CCCGGTCCATGGACCGGTTTTCCCGGTAATCCGTATTTGCA (site CCAGGTCCTTG)”: 0; “CCCGGTCCATGGACCGGTTTTCCCGGTAATCCGTATTTGCA (site CCCAGTCCTTG)”: 0.
On to “CCCGGTCCATGGACCGGTTTTCCCGGTAATCCGTATTTGCA (site CCCCGTCCTTG)”, for which the “recombinant UMI read abundance (log10)” value was determined as 0.0143.
In the case of “CCCGGTCCATGGACCGGTTTTCCCGGTAATCCGTATTTGCA (site CCCGATCCTTG)”, the “recombinant UMI read abundance (log10)” value was 0.
